Read-outs that look alike come from different tables or passages of the source.
Test system: compound-treated mice
Test: Neuropharmacological assay (SmartCube): behavioral activity signature and minimal effective dose
Assay type: in vivo
Details: for minimal effective dose: Mus musculus, ip, MED = dose having 50% or more total activity; for AD: ADHD (probability of activity signature) / AG: analgesic (probability of activity signature) / AX: anxiolytic (probability of activity signature) / CE: cognitive enhancer (probability of activity signature) / DP: anti-depressant (probability of activity signature) / MS: mood stabilizer (probability of activity signature) / PS: anti-psychotic (probability of activity signature) / SD: sedative hypnotic (probability of activity signature) / UN: uncharacterized CNS activity (probability of activity signature): i.p. 15 min before test, most efficacious dose(s)
Source text: Neurosci. 2011 Sep. 9; 5:103 (doi: 10.3389/fnins.2011.00103) (“Roberds”). As reported in Roberds, because psychiatric diseases generally result from disorders of cell-cell communication or circuitry, intact systems are useful in detecting improvement in disease-relevant endpoints. These endpoints are typically behavioral in nature, often requiring human observation and interpretation. To facilitate testing of multiple compounds for behavioral effects relevant to psychiatric disease, PsychoGenics, Inc. (Tarrytown, N.Y., “PGI”) developed SmartCube™, an automated system in which behaviors of compound-treated mice are captured by digital video and analyzed with computer algorithms. (D. Brunner et al., Drug Discov. Today 2002, 7:S107-S112). PGI Analytical Systems uses data from SmartCube™ to compare the behavioral signature of a test compound to a database of behavioral signatures obtained using a large set of diverse reference compounds. (The composition of the database as well as validation of the method is further described in Roberds). In this way, the neuropharmacological effects of a test compound can be predicted by similarity to major classes of compounds, such as antipsychotics, anxiolytics and antidepressants.
The SmartCube™ system produces an activity signature indicating the probability that the activity of the test compound at the administered dose matches a given class of neuropharmacological agents. (See, e.g., Roberds, FIGS. 2 and 3). The test compound is simultaneously compared against multiple classes of agents; thus, a separate probability is generated for each behavioral effect measured (e.g., anxiolytic activity, analgesic activity, etc.). In the table below, these probabilities are reported for each behavioral effect measured as follows:
where LOQ is the limit of quantification.
Provided compounds were dissolved in a mixture of Pharmasolve™ (N-methyl-2-pyrrolidone), polyethylene glycol and propylene glycol, and were injected i.p. 15 min. before the behavioral test. For each compound, injections were administered at 3 different doses. For each behavioral effect measured, results for the most efficacious dose(s) are presented. In the table below, DP: anti-depressant; AX: anxiolytic; SD: sedative hypnotic; PS: anti-psychotic; MS: mood stabilizer; AD: ADHD; CE: cognitive enhancer; AG: analgesic; UN: uncharacterized CNS activity.
The potency of many of the compounds in the table was also determined in the SmartCube™ system. Test compounds were routinely examined at dose levels of 0.3, 1, 3, 10 and 30 mg per kg (mpk), although the dose range was increased or decreased if necessary to obtain a full dose response curve. A compound's minimal effective dose (MED) is a measure of the compounds potency. The MED was defined as the dose (in mpk) having 50% or more total activity in SmartCube.

[1] = read-out: Potency: minimal effective dose (MED), binned
[2] = read-out: Potency: minimal effective dose (MED)

Row | SMILES | minimal effective dose [1] | AD: ADHD (probability of activity signature) | AG: analgesic (probability of activity signature) | AX: anxiolytic (probability of activity signature) | CE: cognitive enhancer (probability of activity signature) | DP: anti-depressant (probability of activity signature) | MS: mood stabilizer (probability of activity signature) | PS: anti-psychotic (probability of activity signature) | SD: sedative hypnotic (probability of activity signature) | UN: uncharacterized CNS activity (probability of activity signature) | minimal effective dose [2]
1 | CCc1ccc2c(c1)[C@H](N)[C@@H](C)OC2.Cl [Example 220] | 3 to 10 mg/kg | + (LOQ ≤ + <5%) | ++ (5% ≤ ++ <25%) | ++++ (50% ≤ ++++) | ++ (5% ≤ ++ <25%) | + (LOQ ≤ + <5%) | + (LOQ ≤ + <5%) | + (LOQ ≤ + <5%) | + (LOQ ≤ + <5%) | ++++ (50% ≤ ++++) | –
2 | COc1ccc2c(c1)[C@H](N)[C@@H](C)OC2 (single isomer, unassigned) [Example 171] | < 3 mg/kg | + (LOQ ≤ + <5%) | ++ (5% ≤ ++ <25%) | +++ (25% ≤ +++ <50%) | ++ (5% ≤ ++ <25%) | ++ (5% ≤ ++ <25%) | + (LOQ ≤ + <5%) | ++ (5% ≤ ++ <25%) | ++ (5% ≤ ++ <25%) | +++ (25% ≤ +++ <50%) | –
3 | Cc1ccc(C)c2c1COCC2N.Cl (stereo not drawn) [Example 47, 5,8-Dimethylisochroman-4-amine hydrochloride] | – | + (LOQ ≤ + <5%) | ++ (5% ≤ ++ <25%) | ++ (5% ≤ ++ <25%) | ++ (5% ≤ ++ <25%) | ++ (5% ≤ ++ <25%) | ++ (5% ≤ ++ <25%) | ++ (5% ≤ ++ <25%) | + (LOQ ≤ + <5%) | ++++ (50% ≤ ++++) | < 3 mg/kg
4 | Cc1ccc2c(c1)CO[C@H](C)[C@@H]2N [Example 190] | 3 to 10 mg/kg | + (LOQ ≤ + <5%) | + (LOQ ≤ + <5%) | ++ (5% ≤ ++ <25%) | ++ (5% ≤ ++ <25%) | + (LOQ ≤ + <5%) | + (LOQ ≤ + <5%) | ++ (5% ≤ ++ <25%) | ++ (5% ≤ ++ <25%) | ++++ (50% ≤ ++++) | –
5 | Cc1ccc2c(c1Cl)C(N)COC2.Cl (stereo not drawn) [Example 45, 5-Chloro-6-methylisochroman-4-amine hydrochloride] | – | + (LOQ ≤ + <5%) | ++ (5% ≤ ++ <25%) | +++ (25% ≤ +++ <50%) | ++ (5% ≤ ++ <25%) | ++ (5% ≤ ++ <25%) | + (LOQ ≤ + <5%) | ++ (5% ≤ ++ <25%) | ++ (5% ≤ ++ <25%) | ++++ (50% ≤ ++++) | 3 to 10 mg/kg
6 | Cl.NC1COCc2c1ccc1ccccc21 (stereo not drawn) [Example 50, 3,4-Dihydro-1H-benzo[h]isochromen-4-amine hydrochloride] | – | + (LOQ ≤ + <5%) | ++ (5% ≤ ++ <25%) | ++ (5% ≤ ++ <25%) | ++ (5% ≤ ++ <25%) | +++ (25% ≤ +++ <50%) | + (LOQ ≤ + <5%) | ++ (5% ≤ ++ <25%) | + (LOQ ≤ + <5%) | ++ (5% ≤ ++ <25%) | 10 to 30 mg/kg
7 | CCCN[C@H]1c2ccccc2CO[C@@H]1C.Cl [Example 268] | 3 to 10 mg/kg | ++ (5% ≤ ++ <25%) | + (LOQ ≤ + <5%) | ++ (5% ≤ ++ <25%) | + (LOQ ≤ + <5%) | + (LOQ ≤ + <5%) | ++ (5% ≤ ++ <25%) | +++ (25% ≤ +++ <50%) | ++ (5% ≤ ++ <25%) | ++ (5% ≤ ++ <25%) | –
8 | CC[C@@H]1OCc2ccc(F)cc2[C@@H]1N.Cl [Example 201] | 3 to 10 mg/kg | + (LOQ ≤ + <5%) | + (LOQ ≤ + <5%) | ++ (5% ≤ ++ <25%) | ++ (5% ≤ ++ <25%) | + (LOQ ≤ + <5%) | + (LOQ ≤ + <5%) | ++ (5% ≤ ++ <25%) | + (LOQ ≤ + <5%) | ++++ (50% ≤ ++++) | –
9 | COc1cccc2c1[C@H](N)[C@H](C)OC2.Cl [Example 230] | 3 to 10 mg/kg | + (LOQ ≤ + <5%) | + (LOQ ≤ + <5%) | ++ (5% ≤ ++ <25%) | ++ (5% ≤ ++ <25%) | + (LOQ ≤ + <5%) | + (LOQ ≤ + <5%) | ++ (5% ≤ ++ <25%) | + (LOQ ≤ + <5%) | ++++ (50% ≤ ++++) | –
10 | CCN(C)C(=O)Oc1ccc2c(c1)[C@H](N(C)C)[C@H](C)OC2.Cl [Example 287] | > 30 mg/kg | + (LOQ ≤ + <5%) | + (LOQ ≤ + <5%) | + (LOQ ≤ + <5%) | + (LOQ ≤ + <5%) | + (LOQ ≤ + <5%) | + (LOQ ≤ + <5%) | + (LOQ ≤ + <5%) | ++ (5% ≤ ++ <25%) | + (LOQ ≤ + <5%) | –
11 | Cc1ccc2c(c1)CO[C@@H](C)[C@@H]2N [Example 253] | 3 to 10 mg/kg | + (LOQ ≤ + <5%) | + (LOQ ≤ + <5%) | + (LOQ ≤ + <5%) | + (LOQ ≤ + <5%) | ++ (5% ≤ ++ <25%) | ++ (5% ≤ ++ <25%) | ++ (5% ≤ ++ <25%) | ++ (5% ≤ ++ <25%) | ++ (5% ≤ ++ <25%) | –
12 | Cc1cccc2c1[C@H](C)OC[C@@H]2N [Example 255] | 10 to 30 mg/kg | + (LOQ ≤ + <5%) | + (LOQ ≤ + <5%) | + (LOQ ≤ + <5%) | + (LOQ ≤ + <5%) | + (LOQ ≤ + <5%) | + (LOQ ≤ + <5%) | + (LOQ ≤ + <5%) | ++ (5% ≤ ++ <25%) | ++ (5% ≤ ++ <25%) | –
